These results are taken from ChEMBL document CHEMBL1944637, “Asymmetric synthesis and cytotoxicity of (-)-saframycin A analogues” (Eur J Med Chem, 2012).

One test deals with HCT-8. Nature of the test: Cytotoxicity against human HCT8 cells assessed as cell viability after 72 hrs by MTT assay. It counts as functional, cell-based. The note with it: HCT-8, 72 h. On the technique in general: Tetrazolium dyes change colour on reduction, which living cells bring about.
The subject of the next test is Bel-7402. The test is described as follows: Cytotoxicity against human Bel7402 cells assessed as cell viability after 72 hrs by MTT assay. It counts as functional, cell-based. Particulars: Bel-7402, 72 h.
In another test the test system is KETR3. Nature of the test: Cytotoxicity against human Ketr3 cells assessed as cell viability after 72 hrs by MTT assay. It counts as functional, cell-based. Particulars: KETR3, 72 h.
The subject of a further test is A2780. The test is described as follows: Cytotoxicity against human A2780 cells assessed as cell viability after 72 hrs by MTT assay. It counts as functional, cell-based. The note with it: A2780, 72 h.
Another test concerns MCF7. The test is described as follows: Cytotoxicity against human MCF7 cells assessed as cell viability after 72 hrs by MTT assay. It counts as functional, cell-based. Particulars: MCF7, 72 h.
Test [1] deals with A549. Nature of the test: Cytotoxicity against human A549 cells assessed as cell viability after 72 hrs by MTT assay. It counts as functional, cell-based. Particulars: A549, 72 h.
Test [2] can be described thus: Cytotoxicity against human BGC803 cells assessed as cell viability after 72 hrs by MTT assay. Particulars: BGC803, 72 h. It counts as functional, cell-based.
The test system of another test is HeLa. Nature of the test: Cytotoxicity against human HeLa cells assessed as cell viability after 72 hrs by MTT assay. It counts as functional, cell-based.
A short description of test [3]: Cytotoxicity against human HELF cells assessed as cell viability after 72 hrs by MTT assay. It counts as functional, cell-based.
The subject of the next test is KB. The test is described as follows: Cytotoxicity against human KB cells assessed as cell viability after 72 hrs by MTT assay. It counts as functional, cell-based.
For test [4], the system named is A549. Nature of the test: Ratio of Saframycin A IC50 to compound IC50 for human A549 cells. It counts as functional.

The term IC50 denotes the concentration at which inhibition is half-maximal. On to `COC1=C(C)C(=O)C2=C(C1=O)[C@@H]1[C@@H]3CC4=C(C(=O)C(OC)=C(C)C4=O)[C@H](CNC(=O)c4cnccn4)N3[C@@H](C#N)[C@H](C2)N1C`, for which the IC50 in the test with HCT-8 amounted to 0.0105 µM; in the test on Bel-7402, 0.00187 µM; with KETR3 it was 0.00161 µM; in the test on A2780, 0.00717 µM; in the test on MCF7, 0.00306 µM; in the test with A549 [1] it was 0.00189 µM. Also, the IC50 in test [2] is 0.0121 µM; in the test on HeLa it was 0.00189 µM; in [3] it was 0.00153 µM; with KB, 0.00185 µM. Also, the “Ratio IC50” value in the test on A549 [4] was found to be 20.
With `COC1=C(C)C(=O)C2=C(C1=O)[C@@H]1[C@@H]3CC4=C(C(=O)C(OC)=C(C)C4=O)[C@H](CNC(=O)c4nccc5ccccc45)N3[C@@H](C#N)[C@H](C2)N1C`, the IC50 was more than 0.1 µM in the test with HCT-8; 0.0847 µM in the test on Bel-7402; more than 0.1 µM in the test on KETR3; 0.098 µM in the test with A2780; 0.0242 µM in the test on MCF7; 0.0886 µM in the test on A549 [1]. Besides, the IC50 in test [2] was 0.0585 µM; in the test with HeLa, 0.0266 µM; in [3] it was 0.0854 µM; in the test on KB, 0.075 µM.
For the compound `COc1c(C)cc2c(c1O)[C@@H]1[C@@H]3Cc4cc(C)c(OC)c(O)c4[C@H](CNC(=O)OC(C)(C)C)N3[C@@H](C#N)[C@H](C2)N1C`, the IC50 stood at 0.0638 µM in the test with HCT-8; 0.0324 µM with Bel-7402; 0.0237 µM in the test on KETR3; 0.045 µM in the test with A2780; 0.0173 µM in the test with MCF7; 0.0268 µM with A549 [1]. Further, the IC50 in test [2] came to 0.0321 µM; in the test on HeLa, 0.0927 µM; in [3], 0.0195 µM; with KB, 0.0314 µM.
`COC1=C(C)C(=O)C2=C(C1=O)[C@@H]1[C@@H]3CC4=C(C(=O)C(OC)=C(C)C4=O)[C@H](CNC(=O)C(C)=O)N3[C@@H](C#N)[C@H](C2)N1C` [SAFRAMYCIN A]: the concentration for half-maximal inhibition (IC50) came to 0.00249 µM in the test with HCT-8; 0.00183 µM with Bel-7402; 0.00956 µM with KETR3; 0.00275 µM in the test on A2780; 0.00639 µM in the test with MCF7; 0.0404 µM in the test with A549 [1]. For the same compound, the IC50 in test [2] was 0.011 µM; in the test with HeLa it was 0.00106 µM; in test [3], 0.00254 µM; in the test on KB it was 0.00223 µM.
